Patent publication US6482975B1, “Bis-poly(ethylene oxide) surfactants and their use as antistats in photographic materials” (Eastman Kodak Company, priority 1998, dated 2002)

Assays:
[1] = Critical micelle concentration from surface tension data in aqueous 7% w/w gelatin solution; format: physicochemical; conditions: aqueous solution containing 7% wt/wt deionised Type IV bone gelatin
Procedure: (§1) A number of surfactants were tested for their ease of dissolution in water. Furthermore, the critical micelle concentrations (CMCs) of the surfactants were determined in aqueous solution containing 7% weight/weight deionised Type IV bone gelatin. The CMCs were determined from surface tension data by estimating the break point in the plot of surface tension against log concentration (see M. J. Rosen, Surfactants and Interfacial Phenomena, 2nd Edition, Wiley (1989), 110).

[2] = Ease of dissolution of surfactant in water; format: physicochemical
Procedure: as §1

| CMC in molar terms (M) moles kg^−1 [1] [M] | Solubility in Water [2] | Substance |
| --- | --- | --- |
| 0.0003 | Requires relatively long stirring | CxF2x+1(CH2)y—(CH2CH2O) z—OH [Zonyl FSN] |
| 6e-05 | Dissolves easily with gentle | Fluoroalkylthiosuccinic acid, Polyethylene glycol diester (II, R=C6F13CH2CH2,p=7) |
